Source: US4957926A, “Method of treating herpesviruses” (priority 1988, dated 1990)
Entries after “also recorded” stand apart in the source; their conditions may differ. Like-named read-outs stand apart in the source and are kept apart here.

Experiments:
[1] = tested on: Herpes Simplex Type II (Viral Strain HG52); experiment: Herpes Simplex Type II Plaque Reduction Assay; type: cell-based; conditions: for Plaque Count: replicate counts
Text: (§1) For testing the N-Bu-DNJ against HSV, the HSV Type II strain HG52 described by Timbury, J. Gen. Virol. 13, 373-376 (1971), and Davis et al., Analyst 110, 605-609 (1985), is useful. For testing against CMV, the prototype CMV ADl69 strain described, for example, by Tyms et al., J. Gen. Virol. 68, 1563-1573 (1987), and in U.S. Pat. No. 4,743,560, is useful. Another useful CMV strain is the Towne strain described by Glazer et al., Ann. Inter. Med. 91, 676-683 (1979).
(§2) Human embryo fibroblast cells (HEF) were grown in Eagles minimal essential medium supplemented with 7% fetal calf serum (FCS), 9 mM sodium bicarbonate and 7 mM HEPES buffer. In maintenance medium the supplements were adjusted to 2% FCS, 13 mM sodium bicarbonate and 14 mM HEPES. CMV, strain Towne, and HSV type II, strain […], were used in the following tests. CMV virus stocks were prepared and stored by technique as previously described by Tyms & Williamson, Nature 297, 690-691 […]. Herpes virus stocks were prepared and stored by technique as previously described by Davis et al., Analyst 110, 605-609 (1985). The HEF were human embryonic lung fibroblasts, strain MRC-5, as described by Tyms and Williamson, Nature 297, 690-691 (1982).
(§3) For plaque reduction assays, 24-well culture trays were seeded with HEF cells. Confluent monolayers were infected with virus to give initially about 100 plaque-forming-units (p.f.u.) per well. After a one hour absorption period the inocula were replaced by l.5ml of a maintenance medium incorporating 0.5% low gelling temperature agarose, supplemented with various concentrations of test compound. For tests with CMV, infected monolayers were fixed with 5% formalin in phosphate buffered saline (PBS) at 6-8 days post-infection and stained with 0.3% methylene blue after removal of the overlay; whereas, tests with HSV were conducted in the same manner but with the monolayer fixing at 2 days post infection. The mean plaque number was calculated from a multiple series of counts (e.g., duplicate, triplicate or quadruplicate), converted to a percentage of untreated controls and values plotted against the log10 drug concentration. The 50% effective dose (ED50) was determined from best line fits for the curves.
The mean plaque numbers determined on HEF cells exposed to varying amount of N-Bu-DNJ, N-Me-DNJ, N-He-DNJ, 2-deoxy-D-glucose and castanospermine were converted to percentage values (plaque count in presence of drug divided by mean value of untreated controls×100), and plotted as a function of drug concentration [drug (mM)].
The 50% effective dose (ED50)--that amount of drug needed to reduce plaque count by 50%--was calculated to give the following values: […]

[2] = tested on: Cytomegalovirus (Viral Strain Towne); experiment: Cytomegalovirus Plaque Reduction Assay; type: cell-based
Text: as §1, §2, §3
In a similar manner, the Effective Dosage Values (ED50) were determined from the curves of FIG. 1. A least squares fit of the data of FIG. 1 to an equation of the form: y=mx+b gave the following values: […]
From these values, a 50% effective dose (ED50) was calculated to give the following values: […]

[3] = tested on: Cytomegalovirus (Viral Strain Towne); experiment: Yield Reduction Assay against infections with CMV (Towne strain); type: cell-based; conditions: for Plaque Count (infectivity titre): 10^1 dil.; for activity at 500 µM / activity at 2000 µM: read-out: % Virus Control
Protocol: Antiviral activities of N-Bu-DNJ and comparative test compounds against infections with CMV (Towne strain) were also measured by the yield reduction assay as follows:
HEF cells (MRC-5) were infected at high multiplicity of infection (about one p.f.u. per cell) and incubated with various concentrations of the test compounds for 5 and 6 days post infection. The level of infectious virus shed into the extracellular fluid was determined at 5 and 6 days by plaque assays as described above, using serial dilution of extracellular fluid to bring readings on scale.
In Table VI, to calculate plaque-forming units (PFU) of the maintenance medium overlayering HEF cells, the plaque count at the most sensitive dilution (from Table V) was multiplied by dilution value and then by 5 (0.2 ml sample volumes used in test) to give PFU (per ml maintenance medium). (e.g. calculation of drug control: 31×10^3 ×5=1.6×10^5 PFU).

HEF cells (strain MRC-5) = experiment: HEF cell growth / monolayer appearance in HSV type II plaque reduction assay; type: cell-based, human; conditions: all concentrations (0.56-4.5 mM)
Protocol: as §3

HSV type I = experiment: preliminary tests with a HSV type I strain which did not form multinucleated giant cells; type: cell-based; conditions: strain not forming giant cells
Text: The formation of multinucleated giant cells (syncytia), which result from the fusion of T4 cells with each other, is one of the most striking properties of HIV [Walker et al., Proc. Natl. Acad. Sci. USA 84, 8120-8124 (1987); Gruters et al., Nature 330, 74-77 (1987)]. Some, but not all, HSV strains also produce these multinucleated giant cells in vitro cell culture.

[4] = Fleet et al., compound No. 57 vs. No. 16; cited from earlier work

SMILES: CCCCN1C[C@H](O)[C@@H](O)[C@H](O)[C@H]1CO [N-Bu-DNJ, Nbutyl deoxynojirimycin]
- antiviral activity against HSV type II (in words) [1]: substantially reduce herpesvirus type II infection of HEF cells; also recorded: strong antiviral activity
- EC50 ([1]; HEF, HSV type II, amount of drug needed to reduce plaque count by 50%, read-out: 50% effective dose (ED50)): 1200 µM
- activity at 220 µM ([1]; HEF, Table I, 0.22 mM, read-out: % Virus Control): 85%
- activity at 450 µM ([1]; HEF, Table I, 0.45 mM, read-out: % Virus Control): 60%
- activity at 900 µM ([1]; HEF, Table I, 0.9 mM, read-out: % Virus Control): 37%
- activity at 1800 µM ([1]; HEF, Table I, 1.8 mM, read-out: % Virus Control): 40%
- activity at 3600 µM ([1]; HEF, Table I, 3.6 mM, read-out: % Virus Control): 7.7%
- activity at 560 µM ([1]; HEF, Table III, 0.56 mM, read-out: % Virus Control): 56.9%
- activity at 1120 µM ([1]; HEF, Table III, 1.12 mM, read-out: % Virus Control): 51%
- activity at 2250 µM ([1]; HEF, Table III, 2.25 mM, read-out: % Virus Control): 27.5%
- activity at 4500 µM ([1]; HEF, Table III, 4.5 mM, read-out: % Virus Control): 17.6%
- Plaque Count Avg ([1]; Table I, 0.22 mM): 66
- Plaque Count ([1]; Table I, 0.22 mM): 80,52
- Plaque Count Avg ([1]; Table I, 0.45 mM): 47
- Plaque Count ([1]; Table I, 0.45 mM): 42,53
- Plaque Count Avg ([1]; Table I, 0.9 mM): 29
- Plaque Count ([1]; Table I, 0.9 mM): 36,22
- Plaque Count Avg ([1]; Table I, 1.8 mM): 31
- Plaque Count ([1]; Table I, 1.8 mM): 41,20
- Plaque Count Avg ([1]; Table I, 3.6 mM): 6
- Plaque Count ([1]; Table I, 3.6 mM): 5,7
- Plaque Count Avg ([1]; Table III, 0.56 mM): 29
- Plaque Count Avg ([1]; Table III, 1.12 mM): 26
- Plaque Count Avg ([1]; Table III, 2.25 mM): 14
- Plaque Count Avg ([1]; Table III, 4.5 mM): 9
- EC50 ([2]; Human betaherpesvirus 5, HEF, CMV, calculated from least squares fit of FIG. 1, read-out: 50% effective dose (ED50)): 570 µM
- activity at 220 µM ([2]; Human betaherpesvirus 5, HEF, Table IV, 0.22 mM, read-out: % Virus control): 87%
- activity at 450 µM ([2]; Human betaherpesvirus 5, HEF, Table IV, 0.45 mM, read-out: % Virus control): 52%
- activity at 900 µM ([2]; Human betaherpesvirus 5, HEF, Table IV, 0.90 mM, read-out: % Virus control): 32%
- activity at 1800 µM ([2]; Human betaherpesvirus 5, HEF, Table IV, 1.8 mM, read-out: % Virus control): 17%
- Plaque Count Avg ([2]; Table IV, 0.22 mM): 153
- Plaque Count ([2]; Table IV, 0.22 mM, replicate counts): 159,156,144,153
- Plaque Count Avg ([2]; Table IV, 0.45 mM): 92
- Plaque Count Avg ([2]; Table IV, 0.90 mM): 56
- Plaque Count Avg ([2]; Table IV, 1.8 mM): 30
- reduction of CMV infection of HEF cells (in words) ([2]; compared with castanospermine): reduces CMV infection of HEF cells at about the same dosage as does castanospermine
- PFU ([3]; 0.5 mM, 5 days HEF growth): 8.5 × 10^5 PFU (per ml maintenance medium
- Plaque Count (infectivity titre) ([3]; 0.5 mM, 5 days growth): ~ 200
- PFU ([3]; 0.5 mM, 6 days HEF growth): 1.3 × 10^4 PFU (per ml maintenance medium
- Plaque Count (infectivity titre) ([3]; 0.5 mM, 6 days growth): ~ 200
- PFU ([3]; 2.0 mM, 5 days HEF growth): 1.4 × 10^3 PFU (per ml maintenance medium
- PFU ([3]; 2.0 mM, 6 days HEF growth): 5.5 × 10^2 PFU (per ml maintenance medium
- activity at 500 µM ([3]; Human betaherpesvirus 5, MRC5, 120 h, 0.5 mM, 5 days HEF growth): 5.3%
- activity at 2000 µM ([3]; Human betaherpesvirus 5, MRC5, 120 h, 2.0 mM, 5 days HEF growth): 0.88%
- activity at 500 µM ([3]; Human betaherpesvirus 5, MRC5, 144 h, 0.5 mM, 6 days HEF growth): 3.5%
- activity at 2000 µM ([3]; Human betaherpesvirus 5, MRC5, 144 h, 2.0 mM, 6 days HEF growth): 0.15%
- HEF cell growth (in words) (HEF cells (strain MRC-5)): grew normally
- antiviral effect on HSV type I strain (in words) (HSV type I): only minor effect
- cytotoxicity relative to castanospermine (in words) [4]: substantially less cytotoxic
